In patent US20250345318A1, “COMPOUND AND USE THEREOF IN PREVENTING OR TREATING RADIATION DAMAGE” (SIMCERE PHARMACEUTICAL CO., LTD., priority 2022, published 2025):

Test system: BEAS-2B cells
Assay: CCK-8 cell viability, JAC4 with X-ray, BEAS-2B (Example 22)
Format: cell-based, human
Details: 10 μM JAC4 24 h + 4 Gy X-ray 24 h
Description: SPCA-1 and BEAS-2B cells were cultured in a 90%/DMEM+10% FBS+100 μg/mL ciprofloxacin culture medium. The SPCA-1 and BEAS-2B cells were pretreated for 24 h with 10 μM JAC4 and subjected to 4 Gy X-ray treatment for 24 h and then CCK-8 detection, so as to explore the influence of JAC4 in combination with X-ray on the viability of SPCA-1 and BEAS-2B cells. The specific procedures are as follows:
1. SPCA-1 and BEAS-2B cells in the exponential growth phase were plated in a 96-well plate at 5,000 cells/well in triplicate for each group.
2. After 24 h of culture, when the cells fully adhered to the container wall and returned to normal morphology, the cells were treated with X-ray radiation of 0, 4, 8, 12, 16, or 20 Gy or JAC4 at 0, 1, 5, 10, 20, or 50 μM.
3. After 24 h of treatment, CCK-8 reagent was added at 10 μL/well, and the cells were incubated in a cell incubator for 1 h. The absorbance (OD) at 450 nm was measured.
4. Cell viability equation: cell viability (%)=[…]×100%/(ODcontrol−ODblank).

For `c1ccc(CSc2nnc(C3COc4ccccc4O3)o2)nc1` (stereo not shown) [JAC4], the “BEAS-2B cell viability (CCK-8)” value was “alleviated the inhibitory effect of X-ray”.
